Data reported in USRE46630E1, “Substituted 4-pyridones and their use as inhibitors of neutrophil elastase activity” (Boehringer Ingelheim International GmbH, priority 2012, dated 2017).

biological target: T1, Human neutrophil elastase (Homo sapiens, UniProt P08246); test: Human Neutrophil Elastase Assay; format: biochemical; details: Neutrophil Elastase assay; substrate MeOSuc-Ala-Ala-Pro-Val-AMC 250 μM; 15 min preincubation, 60 min incubation at room temperature; pH 7.5
T1 construct: purchased Calbiochem 324681
T1 sequence (P08246 30-267): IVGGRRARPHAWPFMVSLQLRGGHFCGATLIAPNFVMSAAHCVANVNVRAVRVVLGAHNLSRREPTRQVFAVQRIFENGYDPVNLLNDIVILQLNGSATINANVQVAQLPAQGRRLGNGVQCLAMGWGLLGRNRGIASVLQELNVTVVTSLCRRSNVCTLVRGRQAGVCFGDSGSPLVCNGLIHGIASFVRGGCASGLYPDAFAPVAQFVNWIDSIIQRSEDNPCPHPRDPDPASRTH
Method in brief: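 Run in 100 mM Tris, 500 mM NaCl, pH 7.5 with 0.01% BSA, with compounds prediluted in DMSO then buffer (5% DMSO final). Fluorescence was read at 380 nm excitation/460 nm emission after enzyme inactivation. Values were normalised to inactivated-enzyme (0%) and uninhibited-enzyme (100%) controls.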

IC50 | Compound
2 nM | Cc1c(-c2cccc(C(F)(F)F)c2)c(=O)c(C(=O)NC2CCN(C)C2=O)cn1C(C)c1ccc(C#N)cc1 (centres unmarked) [Example 7.10]
4.5 nM | Cc1c(-c2ccnc(C(F)(F)F)c2)c(=O)c(C(=O)NCCCO)cn1C(C)c1ccc(C#N)cc1 (centres unmarked) [Example 9.1]
4.1 nM | Cc1c(-c2cccc(C(F)(F)F)c2)c(=O)c(C(=O)NCCCN(C)C)cn1C(C)c1ccc(C#N)cc1 (centres unmarked) [Example 7.1]
3.9 nM | Cc1c(-c2ccnc(C(F)(F)F)c2)c(=O)c(C(=O)NCC[S+](C)[O-])cn1C(C)c1ccc(C#N)cc1 (centres unmarked) [Example 9.3]
6.2 nM | Cc1c(-c2cccc(C(F)(F)F)c2)c(=O)c(C(=O)NC(C)C#N)cn1C(C)c1ccc(C#N)cn1 (centres unmarked) [Example 47.16]
35.9 nM | Cc1c(-c2cccc(C(F)(F)F)c2)c(=O)c(C(=O)NCC[N+](C)(C)C)cn1Cc1ccc(C#N)cc1 [Example 12.1, (2-{[1-(4-Cyano-benzyl)-6-methyl-4-oxo-5-(3-trifluoromethyl-phenyl)-1,4-dihydro-pyridine-3-carbonyl]-amino}-ethyl)-trimethyl-ammonium chloride]
9.6 nM | Cc1c(-c2cccc(F)c2)c(=O)c(C(=O)NCc2ccc(S(C)(=O)=O)cc2)cn1Cc1ccc(C#N)cc1 [Example 6.5]
33.3 nM | Cc1c(-c2ccnc(C(F)(F)F)c2)c(=O)c(C(=O)NCC2(C)COC2)cn1C(C)c1ccc(C#N)cc1 (centres unmarked) [Example 9.38]
3 nM | CCCNC(=O)c1cn(C(C)c2ccc(C#N)cc2)c(C)c(-c2cccc(C(F)F)c2)c1=O (centres unmarked) [Example 8.27]
5.2 nM | COCCNC(=O)c1cn(C(C)c2ccc(C#N)cc2)c(C)c(-c2ccnc(C(F)(F)F)c2)c1=O (centres unmarked) [Example 9.57]
4.6 nM | Cc1c(-c2ccnc(C(F)(F)F)c2)c(=O)c(C(=O)NC2CCN(C)C2=O)cn1C(C)c1ccc(C#N)cc1 (centres unmarked) [Example 9.12]
< 1 nM | CCNC(=O)c1cn(C(C)c2ccc(C#N)cc2)c(C)c(-c2cccc(C(F)(F)F)c2)c1=O (single isomer, unassigned) [Example 10A]
12.8 nM | Cc1c(-c2ccnc(C(F)(F)F)c2)c(=O)c(C(=O)NCC2CCOCC2)cn1C(C)c1ccc(C#N)cc1 (centres unmarked) [Example 9.28]
67.2 nM | Cc1c(-c2cccc(C(F)(F)F)c2)c(=O)c(C(=O)NC2CCOC2)cn1C(C)c1ccc(C#N)cn1 (centres unmarked) [Example 47.9]
4 nM | Cc1c(-c2cccc(C(F)(F)F)c2)c(=O)c(C(=O)NCC(C)O)cn1C(C)c1ccc(C#N)cc1 (centres unmarked) [Example 7.13]
13.7 nM | Cc1c(-c2ccnc(C(F)(F)F)c2)c(=O)c(C(=O)NCC2CCO2)cn1C(C)c1ccc(C#N)cc1 (centres unmarked) [Example 9.27]
9.8 nM | Cc1c(-c2ccnc(C(F)(F)F)c2)c(=O)c(C(=O)NCC2CC3CCC2O3)cn1C(C)c1ccc(C#N)cc1 (centres unmarked) [Example 9.24]
1.8 nM | Cc1c(-c2cccc(C(F)(F)F)c2)c(=O)c(C(=O)NCCCO)cn1C(C)c1ccc(C#N)cc1 (centres unmarked) [Example 7.4]
10.7 nM | Cc1c(-c2cccc(C(F)(F)F)c2)c(=O)c(C(=O)NCC(F)(F)F)cn1C(C)c1ccc(C#N)cn1 (centres unmarked) [Example 47.3]
< 1 nM | Cc1c(-c2cccc(C(F)F)c2)c(=O)c(C(=O)NCc2ccc(S(C)(=O)=O)cc2)cn1C(C)c1ccc(C#N)cc1 (single isomer, unassigned) [Example 11A]
7 nM | CCCNC(=O)c1cn(C(C)c2ccc(C#N)cc2)c(C)c(-c2ccnc(C(F)(F)F)c2)c1=O (centres unmarked) [Example 9.14]
6.1 nM | CCNC(=O)c1cn(C(C)c2ccc(C#N)cc2)c(C)c(-c2ccnc(C(F)(F)F)c2)c1=O (centres unmarked) [Example 9.56]
2.5 nM | Cc1noc(CNC(=O)c2cn(C(C)c3ccc(C#N)cc3)c(C)c(-c3cccc(C(F)(F)F)c3)c2=O)n1 (centres unmarked) [Example 7.2]
420 nM | Cc1c(-c2ccnc(C(F)(F)F)c2)c(=O)c(C(=O)NCC(C)(C)C)cn1C(C)c1ccc(C#N)cc1 (centres unmarked) [Example 9.52]
19.3 nM | Cc1cncc(-c2c(C)n(Cc3ccc(C#N)cc3)cc(C(=O)NCc3ccc(S(C)(=O)=O)cc3)c2=O)c1 [Example 6.4]
1.7 nM | Cc1c(-c2ccnc(C(F)(F)F)c2)c(=O)c(C(=O)NCC#N)cn1C(C)c1ccc(C#N)cc1 (centres unmarked) [Example 9.13]

The next lines start with the compound.

Compound | IC50
Cc1c(-c2cccc(C(F)(F)F)c2)c(=O)c(C(=O)N[C@H]2CCNC2=O)cn1Cc1ccc(C#N)cc1 [Example 1.58] | 8.1 nM
CNC(=O)c1cn(C(C)c2ccc(C#N)cc2)c(C)c(-c2cccc(CF)c2)c1=O (centres unmarked) [Example 31, 1-[1-(4-Cyano-phenyl)-ethyl]-5-(3-fluoromethyl-phenyl)-6-methyl-4-oxo-1,4-dihydro-pyridine-3-carboxylic acid methylamide] | 7.8 nM
CCNC(=O)c1cn(C(C)c2ccc(C#N)cn2)c(C)c(-c2cccc(C(F)(F)F)c2)c1=O (centres unmarked) [Example 17, 1-[1-(5-Cyano-pyridin-2-yl)-ethyl]-6-methyl-4-oxo-5-(3-trifluoromethyl-phenyl)-1,4-dihydro-pyridine-3-carboxylic acid ethylamide] | 4.5 nM
Cc1c(-c2cccc(C(F)(F)F)c2)c(=O)c(C(=O)NCCS(C)(=O)=O)cn1Cc1ccc(C#N)cc1 [Example 1.66] | 6.2 nM
Cc1c(-c2cccc(C(F)(F)F)c2)c(=O)c(C(=O)NC2CNC(=O)C2)cn1Cc1ccc(C#N)cc1 (centres unmarked) [Example 1.12] | 12.1 nM
Cc1c(-c2cccc(C(F)(F)F)c2)c(=O)c(C(=O)N[C@H]2CCC(=O)N(C)C2)cn1Cc1ccc(C#N)cc1 [Example 1.36] | 47.1 nM
Cc1c(-c2cccc(C(F)(F)F)c2)c(=O)c(C(=O)NC2CCCNC2=O)cn1Cc1ccc(C#N)cc1 (centres unmarked) [Example 1.55] | 4.9 nM
CCCS(=O)(=O)c1cc(C#N)ccc1Cn1cc(C(=O)NC)c(=O)c(-c2cccc(C(F)(F)F)c2)c1C [Example 25, 1-[4-Cyano-2-(propane-1-sulfonyl)-benzyl]-6-methyl-4-oxo-5-(3-trifluoromethyl-phenyl)-1,4-dihydro-pyridine-3-carboxylic acid methylamide] | 14 nM
Cc1c(-c2cccc(C(F)(F)F)c2)c(=O)c(C(=O)NCCc2cccnc2)cn1Cc1ccc(C#N)cc1 [Example 1.44] | 7.9 nM
CCNC(=O)c1cn(Cc2ccc(C#N)cc2)c(C)c(-c2cccc(C(F)(F)F)c2)c1=O [Example 1.51] | 10.7 nM
Cc1c(-c2cccc(C(F)(F)F)c2)c(=O)c(C(=O)NCc2ccc(S(C)(=O)=O)cc2)cn1Cc1ccc(C#N)cn1 [Example 2.3] | < 1 nM
Cc1c(-c2cccc(C(F)(F)F)c2)c(=O)c(C(=O)NC2CCN(C)C2=O)cn1Cc1ccc(C#N)cc1 (centres unmarked) [Example 1.57] | 6.8 nM
CNC(=O)c1cn(C(C)c2ccc(C#N)cc2)c(C)c(-c2ccc(F)c(C(F)(F)F)c2)c1=O (centres unmarked) [Example 30] | 5.3 nM
Cc1nnc(CNC(=O)c2cn(Cc3ccc(C#N)cc3S(C)(=O)=O)c(C)c(-c3cccc(C(F)(F)F)c3)c2=O)o1 [Example 22] | 2.8 nM
Cc1c(-c2cccc(C(F)(F)F)c2)c(=O)c(C(=O)NCC(O)CO)cn1Cc1ccc(C#N)cc1 (centres unmarked) [Example 1.17, 1-(4-Cyano-benzyl)-6-methyl-4-oxo-5-(3-trifluoromethyl-phenyl)-1,4-dihydro-pyridine-3-carboxylic acid (2,3-dihydroxy-propyl)-amide] | 21 nM
Cc1c(-c2cccc(C(F)(F)F)c2)c(=O)c(C(=O)NCc2ccc(S(C)(=O)=O)cn2)cn1Cc1cccc(C#N)c1 [Example 4.4] | 63.8 nM
Cc1c(-c2ccnc(C(F)(F)F)c2)c(=O)c(C(=O)NCc2ccc(S(C)(=O)=O)cc2)cn1Cc1ccc(C#N)c(F)c1 [Example 5.2] | 1.2 nM
CCNC(=O)c1cn(C(C)c2ccc(C#N)cn2)c(C)c(-c2cccc(C(F)F)c2)c1=O (centres unmarked) [Example 18, 1-[1-(5-Cyano-pyridin-2-yl)-ethyl]-5-(3-difluoromethyl-phenyl)-6-methyl-4-oxo-1,4-dihydro-pyridine-3-carboxylic acid ethylamide] | 5.4 nM
Cc1c(-c2cccc(C(F)(F)F)c2)c(=O)c(C(=O)NCCn2cccn2)cn1Cc1ccc(C#N)cc1 [Example 1.30] | 17.1 nM
Cc1c(-c2cccc(C(F)(F)F)c2)c(=O)c(C(=O)NCCc2ccncc2)cn1Cc1ccc(C#N)cc1 [Example 1.45] | 7.6 nM
COc1cc(C#N)ccc1Cn1cc(C(=O)NCc2ccc(S(C)(=O)=O)cn2)c(=O)c(-c2cccc(C(F)(F)F)c2)c1C [Example 4.7] | < 1 nM
CNC(=O)c1cn(Cc2ccc(C#N)cc2)c(C)c(-c2cccc(C(F)(F)F)c2)c1=O [Example 1.11] | 14.4 nM
Cc1c(-c2cccc(C(F)(F)F)c2)c(=O)c(C(=O)NCC2CCCO2)cn1Cc1ccc(C#N)cc1 (centres unmarked) [Example 1.47] | 22 nM
Cc1c(-c2cccc(C(F)(F)F)c2)c(=O)c(C(=O)NCc2ccc(S(C)(=O)=O)cn2)cn1Cc1ccncc1 [Example 4.3] | 58 nM
CNC(=O)c1cn(Cc2ccc(C#N)c(F)c2)c(C)c(-c2cccc(C(F)F)c2)c1=O [Example 33] | 14 nM
COc1cc(C#N)ccc1Cn1cc(C(=O)NCc2ccc(S(C)(=O)=O)cc2)c(=O)c(-c2cccc(C(F)(F)F)c2)c1C [Example 2.6] | 1.6 nM
CCNC(=O)c1cn(Cc2ccc(C#N)cc2S(C)(=O)=O)c(C)c(-c2cccc(C(F)(F)F)c2)c1=O [Example 21] | 4.6 nM
CNC(=O)c1cn(C(C)c2ccc(C#N)cc2)c(C)c(-c2cccc(C)c2)c1=O (centres unmarked) [Example 29] | 14.4 nM
Cc1c(-c2cccc(C(F)(F)F)c2)c(=O)c(C(=O)NCc2ccc(S(C)(=O)=O)cc2)cn1Cc1ccc(Cl)cc1 [Example 2.7] | 6.9 nM
Cc1c(-c2cccc(C(F)(F)F)c2)c(=O)c(C(=O)NC2CC(=O)N(C)C2)cn1Cc1ccc(C#N)cc1 (centres unmarked) [Example 1.61] | 11.4 nM
